# Assay results reported in patent US4628064A, “Epinine and the therapeutic use thereof” (SIMES, Societa Italiana Medicinali e Sintetici S.p.A., priority 1983, dated 1986).
# pIC50: −log10 of the molar value.
# Assays:
# [1] = system: anesthetized dog; assay: Hemodynamic parameters in the anesthetized dog after intravenous infusion; type: in vivo; conditions: for effect on the heart rate: doses of 1, 2.5 and 5 μg/kg/min, in words; for Average arterial pressure / Heart rate / Renal art. flow / Renal resistances: measured 5 minutes after infusion, average ± SE
# From the text: Dopamine and epinine have been compared after intravenous infusion at different doses in the anesthetized dog.
# [2] = system: electrically stimulated median arteria of rabbit ear; assay: Inhibition of contraction induced by electrical stimulation, median arteria of rabbit ear; conditions: for pIC50: Oryctolagus cuniculus, concentrations between 0.01 and 10 μM, read-out: ED50 in inhibiting the contraction induced by electrical stimulation
# [3] = less potent than adrenaline; cited from earlier work
Compound,effect on the heart rate [1],Average arterial pressure ([1]; infusion 1.00 μg/kg/min) [mmHg],Heart rate ([1]; infusion 1.00 μg/kg/min),Renal art. flow ([1]; infusion 1.00 μg/kg/min) [mL/min],Renal resistances ([1]; infusion 1.00 μg/kg/min) [mmHg/ml/min],Average arterial pressure ([1]; infusion 2.50 μg/kg/min) [mmHg],Heart rate ([1]; infusion 2.50 μg/kg/min),Renal art. flow ([1]; infusion 2.50 μg/kg/min) [mL/min],Renal resistances ([1]; infusion 2.50 μg/kg/min) [mmHg/ml/min],Average arterial pressure ([1]; infusion 5.00 μg/kg/min) [mmHg],Heart rate ([1]; infusion 5.00 μg/kg/min),Renal art. flow ([1]; infusion 5.00 μg/kg/min) [mL/min],Renal resistances ([1]; infusion 5.00 μg/kg/min) [mmHg/ml/min],pIC50 [2],Average arterial pressure ([1]; infusion 0.50 μg/kg/min) [mmHg],Heart rate ([1]; infusion 0.50 μg/kg/min),Renal art. flow ([1]; infusion 0.50 μg/kg/min) [mL/min],Renal resistances ([1]; infusion 0.50 μg/kg/min) [mmHg/ml/min],activity relative to dopamine (presynaptic DA2 receptors) ([2]; higher than that of dopamine) [times],pressor potency relative to adrenaline [3]
"NCCc1ccc(O)c(O)c1 [dopamine, reference compound]",slightly increased,106 ± 7,144 ± 10,127 ± 20.8,1.120 ± 0.149,105 ± 6,146 ± 8,132 ± 21.0,1.053 ± 0.146,109 ± 6,151 ± 8,122.9 ± 19.8,1.136 ± 0.261,5.62,,,,,,
"CNCCc1ccc(O)c(O)c1 [epinine, N-methyl-3,4-dihydroxyphenethylamine]",moderate but significant reduction,136 ± 8,161 ± 11,157.5 ± 28.1,0.971 ± 0.185,135 ± 7,156 ± 12,159.8 ± 29.3,0.954 ± 0.183,139 ± 6,149 ± 11,164.3 ± 29.7,0.965 ± 0.181,7.11,136 ± 9,164 ± 10,153.5 ± 18.5,0.990 ± 0.145,30,about ten
